Assay results published in patent publication US10179782B2, “Substituted sulfonamide compounds” (Genentech, Inc., priority 2016, dated 2019).

biological target: T1, human TRPA1 (Homo sapiens, UniProt O75762); experiment: TRPA1 FLIPR Tetra calcium influx assay in CHO cells (block of cinnamaldehyde-induced calcium influx); type: cell-based; conditions: Table 1; CHO cells expressing TRPA1; agonist cinnamaldehyde 75 uM; with vs without substituent at R2/R3; read-out: hTRPA1 CHO Ca2+ AUC EVO (IC50)
T1 construct: expressed in transfected cells; host or cells: CHO cells
T1 sequence (O75762 whole entry): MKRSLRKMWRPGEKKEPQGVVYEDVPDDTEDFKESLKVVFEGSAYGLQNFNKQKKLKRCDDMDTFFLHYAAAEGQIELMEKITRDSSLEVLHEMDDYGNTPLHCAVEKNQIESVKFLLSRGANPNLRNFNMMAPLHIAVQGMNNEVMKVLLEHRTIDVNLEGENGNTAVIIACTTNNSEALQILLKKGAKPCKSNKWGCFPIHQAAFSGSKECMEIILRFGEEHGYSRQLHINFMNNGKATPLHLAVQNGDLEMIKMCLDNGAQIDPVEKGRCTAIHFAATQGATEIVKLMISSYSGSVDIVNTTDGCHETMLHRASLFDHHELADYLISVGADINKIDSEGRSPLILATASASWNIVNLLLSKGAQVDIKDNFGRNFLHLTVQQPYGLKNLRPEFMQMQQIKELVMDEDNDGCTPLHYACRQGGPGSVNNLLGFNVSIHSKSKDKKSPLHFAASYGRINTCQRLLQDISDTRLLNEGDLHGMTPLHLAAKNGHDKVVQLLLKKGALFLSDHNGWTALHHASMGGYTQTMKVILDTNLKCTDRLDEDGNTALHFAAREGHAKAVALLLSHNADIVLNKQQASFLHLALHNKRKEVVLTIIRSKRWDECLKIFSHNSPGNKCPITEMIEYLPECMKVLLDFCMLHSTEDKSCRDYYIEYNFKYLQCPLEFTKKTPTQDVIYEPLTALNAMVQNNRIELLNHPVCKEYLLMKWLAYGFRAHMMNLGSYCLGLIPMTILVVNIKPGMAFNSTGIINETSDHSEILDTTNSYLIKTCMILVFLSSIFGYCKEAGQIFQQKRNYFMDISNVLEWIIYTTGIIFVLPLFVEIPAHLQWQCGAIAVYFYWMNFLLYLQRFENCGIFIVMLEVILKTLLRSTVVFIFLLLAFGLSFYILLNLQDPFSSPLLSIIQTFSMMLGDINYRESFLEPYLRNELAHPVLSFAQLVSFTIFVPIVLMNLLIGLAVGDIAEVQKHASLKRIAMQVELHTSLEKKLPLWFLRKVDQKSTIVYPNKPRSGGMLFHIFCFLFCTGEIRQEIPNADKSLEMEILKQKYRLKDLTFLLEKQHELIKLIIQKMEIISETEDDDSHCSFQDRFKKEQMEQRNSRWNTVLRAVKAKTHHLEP
In short: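 CHO cells expressing TRPA1 were loaded with calcium dye in HBSS/20 mM HEPES, pH 7.4, 0.02% BSA, then given compound for 20 min at room temperature before ~EC80 cinnamaldehyde (75 µM human, 45 µM rat). Block of calcium influx was read on FLIPR Tetra; IC50 fitted with Hill coefficient fixed at 1.5.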

Point of comparison: `C[C@H]1[C@H](F)C[C@@H](C(=O)NCc2cc(-c3cnc(C(F)(F)F)nc3)ncc2F)N1S(=O)(=O)c1ccc(F)cc1` [drawing 600, (2S,4R,5S)-4-fluoro-1-(4-fluorophenyl)sulfonyl-N-[[5-fluoro-2-[2-(trifluoromethyl)pyrimidin-5-yl]-4-pyridyl]methyl]-5-methyl-pyrrolidine-2-carboxamide], IC50 2.01 nM. Against it:
- O=C(NCc1cc(-c2cnc(C(F)(F)F)nc2)ncc1F)[C@@H]1C[C@@H](F)CN1S(=O)(=O)c1ccc(F)cc1 [(2S,4R)-4-fluoro-1-(4-fluorophenyl)sulfonyl-N-[[5-fluoro-2-[2-(trifluoromethyl)pyrimidin-5-yl]-4-pyridyl]methyl]pyrrolidine-2-carboxamide, reference compound] — 13-fold higher, 26.7 nM

same assay, conditions: Table 2; CHO cells expressing TRPA1; agonist cinnamaldehyde 75 uM; 20 min compound incubation; Hill coefficient fixed to 1.5; read-out: hTRPA1 CHO Ca2+ AUC EVO (IC50)

Point of comparison: `C[C@H]1[C@H](F)C[C@@H](C(=O)NCc2cn(-c3cnc(C(F)(F)F)nc3)nc2Cl)N1S(=O)(=O)c1ccc(F)cc1` [Example 62, (2S,4R,5S)-N-[[3-chloro-1-[2-(trifluoromethyl)pyrimidin-5-yl]pyrazol-4-yl]methyl]-4-fluoro-1-(4-fluorophenyl)sulfonyl-5-methyl-pyrrolidine-2-carboxamide], IC50 58.2 nM. Against it:
- C[C@H]1[C@H](F)C[C@@H](C(=O)NCc2cc(-c3cnc(C(F)(F)F)nc3)ncc2F)N1S(=O)(=O)c1cccc(Cl)c1 (stereo in doubt) [Example 91, (2S,4R,5S)-1-(3-chlorophenyl)sulfonyl-4-fluoro-N-[[5-fluoro-2-[2-(trifluoromethyl)pyrimidin-5-yl]-4-pyridyl]methyl]-5-methyl-pyrrolidine-2-carboxamide] — 2.9-fold lower, 20 nM
- C[C@H]1[C@H](F)C[C@@H](C(=O)NCc2cc([C@H]3CC[C@@H](C(F)(F)F)CC3)c(F)cn2)N1S(=O)(=O)c1ccc(F)cc1 [Example 52, (2S,4R,5S)-4-fluoro-1-(4-fluorophenyl)sulfonyl-N-[[5-fluoro-4-[4-(trifluoromethyl)cyclohexyl]-2-pyridyl]methyl]-5-methyl-pyrrolidine-2-carboxamide] — 6.5-fold lower, 8.9 nM
- C[C@H]1[C@H](F)C[C@@H](C(=O)NCc2cc(-c3cnc(C(F)(F)F)nc3)ccn2)N1S(=O)(=O)c1ccc(F)cc1 [Example 29, (2S,4R,5S)-4-fluoro-1-(4-fluorophenylsulfonyl)-5-methyl-N-((4-(2-(trifluoromethyl)pyrimidin-5-yl)pyridin-2-yl)methyl)pyrrolidine-2-carboxamide] — 1.9-fold higher, 113 nM
- C[C@H]1[C@H](F)C[C@@H](C(=O)NCc2cc(OCCC3(C(F)(F)F)CC3)nc(C3CC3)n2)N1S(=O)(=O)c1ccc(F)cc1 [Example 143, (2S,4R,5S)-N-[[2-cyclopropyl-6-[2-[1-(trifluoromethyl)cyclopropyl]ethoxy]pyrimidin-4-yl]methyl]-4-fluoro-1-(4-fluorophenyl)sulfonyl-5-methyl-pyrrolidine-2-carboxamide] — 2.6-fold lower, 22.4 nM
- C[C@H]1[C@H](F)C[C@@H](C(=O)NCc2cc(-c3cnc(C(F)(F)F)nc3)c(C(F)F)cn2)N1S(=O)(=O)c1ccc(F)cc1 [Example 133, (2S,4R,5S)-N-[[5-(difluoromethyl)-4-[2-(trifluoromethyl)pyrimidin-5-yl]-2-pyridyl]methyl]-4-fluoro-1-(4-fluorophenyl)sulfonyl-5-methyl-pyrrolidine-2-carboxamide] — 1.9-fold lower, 30.5 nM
- C[C@H]1[C@H](F)C[C@@H](C(=O)NCc2cc(-c3cnc(C(F)(F)F)nc3)cc(C3CC3)n2)N1S(=O)(=O)c1ccc(F)cc1 [Example 130, (2S,4R,5S)-N-[[6-cyclopropyl-4-[2-(trifluoromethyl)pyrimidin-5-yl]-2-pyridyl]methyl]-4-fluoro-1-(4-fluorophenyl)sulfonyl-5-methyl-pyrrolidine-2-carboxamide] — 15-fold lower, 3.82 nM
- C[C@H]1[C@H](F)C[C@@H](C(=O)NCc2cc(-c3cnc(C(F)(F)F)nc3)ncc2F)N1S(=O)(=O)c1ccccc1 [Example 27, (2S,4R,5S)-4-fluoro-N-((5-fluoro-2-(2-(trifluoromethyl)pyrimidin-5-yl)pyridin-4-yl)methyl)-5-methyl-1-(phenylsulfonyl)pyrrolidine-2-carboxamide] — within 1.5-fold, 46.4 nM
- O=C(NCc1cc(-c2cnc(C(F)(F)F)nc2)ncc1Cl)[C@@H]1[C@H]2C[C@H]2CN1S(=O)(=O)c1ccc(F)cc1 [Example 63, (1S,2S,5R)-N-[[5-chloro-2-[2-(trifluoromethyl)pyrimidin-5-yl]-4-pyridyl]methyl]-3-(4-fluorophenyl)sulfonyl-3-azabicyclo[3.1.0]hexane-2-carboxamide] — 9.4-fold lower, 6.16 nM
- C[C@H]1[C@H](F)C[C@@H](C(=O)NCc2cc(-c3ccc(C(F)(F)F)nc3)ncn2)N1S(=O)(=O)c1ccc(F)cc1 [Example 23, (2S,4R,5S)-4-fluoro-1-(4-fluorophenyl)sulfonyl-5-methyl-N-[[6-[6-(trifluoromethyl)-3-pyridyl]pyrimidin-4-yl]methyl]pyrrolidine-2-carboxamide] — within 1.5-fold, 85.6 nM
- CC1(C)[C@@H]2[C@@H](C(=O)NCc3cc(-c4cnc(C(F)(F)F)nc4)ncc3F)N(S(=O)(=O)c3ccc(F)cc3)C[C@@H]21 [Example 72, (1S,4S,5R)-3-(4-fluorophenyl)sulfonyl-N-[[5-fluoro-2-[2-(trifluoromethyl)pyrimidin-5-yl]-4-pyridyl]methyl]-6,6-dimethyl-3-azabicyclo[3.1.0]hexane-4-carboxamide] — 4-fold lower, 14.7 nM
- C[C@H]1[C@H](F)C[C@@H](C(=O)NCc2cc(-c3cnc(C(F)(F)F)nc3)c(C#N)c(C3CC3)n2)N1S(=O)(=O)c1ccc(F)cc1 [Example 142, (2S,4R,5S)—N-([5-cyano-6-cyclopropyl-4-[2-(trifluoromethyl)pyrimidin-5-yl]pyridin-2-yl]methyl)-4-fluoro-1-[(4-fluorobenzene)sulfonyl]-5-methylpyrrolidine-2-carboxamide] — 4.9-fold lower, 12 nM
- COc1nc(CNC(=O)[C@@H]2C[C@@H](F)[C@H](C)N2S(=O)(=O)c2ccc(F)cc2)cc(-c2cnc(C(F)(F)F)nc2)n1 [Example 126, (2S,4R,5S)-4-fluoro-1-(4-fluorophenyl)sulfonyl-N-[[2-methoxy-6-[2-(trifluoromethyl)pyrimidin-5-yl]pyrimidin-4-yl]methyl]-5-methyl-pyrrolidine-2-carboxamide] — 4.5-fold lower, 12.8 nM
- C[C@H]1[C@H](F)C[C@@H](C(=O)NCc2cc(-c3cnc(C(F)(F)F)nc3)ncc2F)N1S(=O)(=O)c1ccc(Cl)cc1 [Example 90] — 23-fold lower, 2.5 nM
- C[C@H]1CC[C@@H](C(=O)NCc2cc(-c3cnc(C(F)(F)F)nc3)nc(-c3cnc(C(F)(F)F)nc3)c2)N1S(=O)(=O)c1ccc(F)cc1 [Example 11, (2S,5S)-N-[[2,6-bis[2-(trifluoromethyl)pyrimidin-5-yl]-4-pyridyl]methyl]-1-(4-fluorophenyl)sulfonyl-5-methyl-pyrrolidine-2-carboxamide] — 18-fold lower, 3.17 nM
- C[C@H]1[C@H](F)C[C@@H](C(=O)NCc2cc(-c3cnc(C(F)(F)F)nc3)ncc2CF)N1S(=O)(=O)c1ccc(F)cc1 [Example 138] — 5-fold lower, 11.7 nM
- O=C(NCc1ccc(F)c(-c2cnc(C(F)(F)F)nc2)c1)[C@@H]1[C@@H]2[C@H](CN1S(=O)(=O)c1ccc(F)cc1)C2(F)F [Example 69, (1R,4S,5S)-6,6-difluoro-3-(4-fluorophenyl)sulfonyl-N-[[4-fluoro-3-[2-(trifluoromethyl)pyrimidin-5-yl]phenyl]methyl]-3-azabicyclo[3.1.0]hexane-4-carboxamide] — within 1.5-fold, 45.7 nM
- C[C@H]1[C@H](F)C[C@@H](C(=O)NCc2cc(-c3cnc(C(F)(F)F)nc3)nc(OCC(F)(F)F)n2)N1S(=O)(=O)c1ccc(F)cc1 [Example 124, (2S,4R,5S)-4-fluoro-1-(4-fluorophenyl)sulfonyl-5-methyl-N-[[2-(2,2,2-trifluoroethoxy)-6-[2-(trifluoromethyl)pyrimidin-5-yl]pyrimidin-4-yl]methyl]pyrrolidine-2-carboxamide] — 25-fold lower, 2.3 nM
- C[C@H]1[C@H](F)C[C@@H](C(=O)NCc2cc(-c3cnc(C(F)(F)F)nc3)ncc2F)N1S(=O)(=O)c1ccc(Br)cc1 [Example 89, (2S,4R,5S)-1-(4-bromophenyl)sulfonyl-4-fluoro-N-[[5-fluoro-2-[2-(trifluoromethyl)pyrimidin-5-yl]-4-pyridyl]methyl]-5-methyl-pyrrolidine-2-carboxamide] — 8.2-fold lower, 7.08 nM
- C[C@H]1[C@H](F)C[C@@H](C(=O)NCc2cc(-c3cnc(C(F)(F)F)c(C#N)c3)ncc2F)N1S(=O)(=O)c1ccc(F)cc1 [Example 134, (2S,4R,5S)-N-[[2-[5-cyano-6-(trifluoromethyl)-3-pyridyl]-5-fluoro-4-pyridyl]methyl]-4-fluoro-1-(4-fluorophenyl)sulfonyl-5-methyl-pyrrolidine-2-carboxamide] — 1.8-fold lower, 32.6 nM
